This is an account of results in patent publication US20210024482A1, “Novel Group of STAT3 Pathway Inhibitors and Cancer Stem Cell Pathway Inhibitors” (Sumitomo Dainippon Pharma Oncology, Inc., priority 2007, published 2021).

Some results are limits rather than exact numbers.

Common to all, as to assay type: cell-based
One experiment relates to CD34^+ BM Erythroid. The experiment in a line: Colony formation assay, CD34+ bone marrow erythroid lineage. The text has this:
(§1) In a similar fashion to PMBCs, CD34^+ bone marrow hematopoietic stem cells were spared when treated with compound 401.

A further experiment concerns SW480 Hoechst SP cells. The experiment in a line: MTT cell viability, SW480 Hoechst side population CSCs. The settings on record: FIG. 8B. The procedure:
To identify and isolate side population (SP) and non-SP fractions, SW480 cells were removed from the culture dish with trypsin and EDTA, pelleted by centrifugation, washed with phosphate-buffered saline (PBS), and resuspended at 37° C. in Dulbecco's modified Eagle's medium (DMEM) containing 2% FBS and 1 mM HEPES. The cells were then labeled with Hoechst 33342 (Invitrogen) at a concentration of 5 μg/mL. The labeled cells were incubated for 120 minutes at 37° C., either alone or with 50 μM verapamil (Sigma-Aldrich, St. Louis). After staining, the cells were suspended in Hanks' balanced saline solution (HBSS; Invitrogen) containing 2% FBS and 1 mM HEPES, passed a through 40 μm mesh filter, and maintained at 4° C. until flow cytometry analysis. The Hoechst dye was excited at 350 nm, and its fluorescence was measured at two wavelengths using a 450 DF10 (450/20 nm band-pass filter) and a 675LP (675 nm long-pass edge filter) optical filter. The gating on forward and side scatter was not stringent, and only debris was excluded,
(§2) For 3-(4,5 dimethylthiazol-2-yl)-2,5-diphenyltetrazolium (MTT) (Sigma-Aldrich, St. Louis, Mo.) analysis, cells were plated in 96 well plates at 10,000 cells per well. 24 hours after plating, compound was added to cells at indicated doses. 22 hours following compound addition, MTT was added to each well (0.5 mg/ml, final concentration) and plates were incubated for an additional 2 hours at 37° C. Medium was then aspirated and the formazan product was solubilized in 100 μl of isopropyl alcohol. The absorbance of each well was measured at 570 nm using a microplate reader.
The IC50 of compound 401 against the Hoechst side population was accessed in MTT assays and was compared to the IC50 against the non-side population.
In addition, we tested the activities of several other compounds against cancer stem cells. Briefly, freshly isolated CSCs (SW480 Hoechst SP cells or CD44^high FaDu cells) were exposed to a dose range (30-0.117 μM) of compound for 48 h before examining cell viability by MTT assay. IC50s were estimated by plotting the percentage of surviving cells. As shown in Table 4 and Table 5, compounds of present invention can target cancer stem cells.

A further experiment relates to CD34^+ BM Myeloid. The experiment in a line: Colony formation assay, CD34+ bone marrow myeloid lineage. Particulars: normal cells, 6 hours incubation.
From the text: as §1

The test system of experiment [1] is Peripheral blood mononuclear cells (PBMCs). Briefly: MTT cell viability of normal PBMCs. The settings on record: PBMC, 24 hour incubation. The procedure:
as §2
Under assay conditions that result in the death of virtually all cancer cells, normal cells remain substantially viable.

In general, IC50 refers to the concentration that gives 50% inhibition. High values mean a need for much substance, low ones inhibition by little substance. Take `CC(=O)c1cc2c(o1)C(=O)c1ccccc1C2=O` [Compound 401, 2-acetylnaphtho[2,3-b]furan-4,9-dione]: the therapeutic window entry in the experiment with CD34^+ BM Erythroid (CD34+ bone marrow cells vs DU145 and HT29, in vitro) is reported as “greater than 50 fold”. Moreover, the IC50 was above 30 µM in the experiment with CD34^+ BM Erythroid (normal cells, 6 hours incubation, colony formation); above 30 µM in the experiment with CD34^+ BM Myeloid; 14 µM in experiment [1]. The “sensitivity of side population compared to non-side population” value in the experiment with SW480 Hoechst SP cells was “the side population is as sensitive as the non-side population”.
